Assay results from patent publication US20240041886A1, “METHODS FOR TREATING SPINOCEREBELLAR ATAXIA TYPE 3” (PTC Therapeutics, Inc., priority 2021, published 2024).
Where two headings read alike, the source gives them in different places.

How the values were obtained:
[1] = system: Endogenous Total ATXN3 (tATXN3) Protein; assay: Endogenous Total ATXN3 (tATXN3) Protein Assay (MSD); format: cell-based; settings: for IC50: average IC50, total ATXN3 protein in cell lysate after 48 h, 7-point concentration curve
Procedure: Meso Scale Discovery (MSD) 96-well or 384-well plates were coated overnight at 4° C. with Ataxin 3 mouse monoclonal antibody (Invitrogen, MA3-082) at a concentration of 0.5 μg/mL in PBS (30 μL per well). Plates were then washed three times with 300 μL wash buffer (0.05% TWEEN®-20, polyethylene glycol sorbitan monolaurate, in PBS) and blocked (Meso Scale Diagnostics, R93BA-1; 5% BSA in PBS) for 2 h at RT with rotational shaking and then washed three times with wash buffer.
(§1) Test compounds were serially diluted 3.16-fold in 100% DMSO to generate a 7-point concentration curve. Aliquots of 0.5 μL of diluted compounds were transferred to a 96-well flat bottom plate by a liquid handler. An aliquot of 0.5 μL DMSO was also transferred to separate wells and used as controls. Duplicate samples were set up for each compound concentration and for the DMSO control.
Cells were thawed and incubated in cell culture media (DMEM, 10% FBS, and 1% antibiotic cocktail) for 72 h. Cells were trypsinized, counted, and re-suspended to a concentration of 100,000 cells/mL in cell culture media. A 100 μL aliquot of the cell suspensions were plated at 10,000 cells per well in the compound containing 96 well microtiter plate and incubated for in a cell culture incubator (37° C., 5% CO2, 100% relative humidity). After 48 h, the medium was removed and 50-100 μL of lysis buffer (Meso Scale Diagnostics, R60TX-2) containing 1× halt protease inhibitor cocktail of (Thermo Scientific, Halt™ Protease Inhibitor Cocktail, 78430) per well was added to cells to provide a “cell lysate”. The plate was placed on a shaker at 4° C. for 30 minutes, then stored at −80° C.
Cell lysate samples (25 μL) were transferred to the antibody-coated MSD plate and incubated overnight at 4° C. After removal of the lysates, the plate was washed three times with wash buffer, and 25 μL of Ataxin 3 recombinant rabbit monoclonal antibody (Invitrogen, #702788) secondary antibody (diluted to 0.25 μg/mL in 0.05% TWEEN®-20 in blocking buffer) was added to each well and incubated with shaking for 1-2 h at room temperature. Following incubation with the secondary antibody, the wells were rinsed with wash buffer and then […] Anti Rabbit Antibody Goat SULFO-TAG Labeled (Meso Scale Diagnostics, R32AB-1) detecting antibody (diluted to 0.25 μg/mL in 0.05% TWEEN®-20 in blocking buffer) was added to each well and incubated with shaking for 1 h at room temperature. After rinsing three times with wash buffer, 150 μL of Read Buffer T with surfactant (tris-based buffer containing tripropylamine, Meso Scale Diagnostics, R92TC-1) were added to each empty well, and the plate was imaged on a SI 6000 imager (MSD) according to manufacturers' instructions provided for 96- or 384-well plates.

ATXN3 Pre-mRNA = assay: RT-qPCR Assay to Quantify Exon 4 Skipping in ATXN3 Pre-mRNA in Cells; format: cell-based; settings: for IC50: percent exon 4 skipping by RT-qPCR after 24 h, 7-point concentration curve
Procedure: as §1
Cells were thawed and incubated in cell culture media (DMEM, 10% FBS, and 1% antibiotic cocktail) for 72 h. Cells were trypsinized, counted, and re-suspended to a concentration of 100,000 cells/mL in cell culture media. A 100 μL aliquot of the cell suspensions were plated at 10,000 cells per well in the compound containing 96 well microtiter plate and incubated for in a cell culture incubator (37° C., 5% CO2, 100% relative humidity).
After 24 h, media was aspirated from the cells and 50 μL of the RCL2 lysis buffer (10 mM Tris-HCL pH 7.4, 150 mM NaCl, 0.33% IGEPAL® CA-630) was added to each well and incubated at RT for 1 min. Chilled nuclease free water (50 μL per well) was added and the plates were immediately transferred on ice. After 1 min on ice, plates were frozen at −80° C. overnight.
Preparation of RT-qPCR Reaction Mixture:
An aliquot of 2 μL/well of the cell lysates was transferred using the liquid handler to the Armadillo 384-Well PCR plate containing 8 μL/well of the RT-qPCR reaction mixture that was prepared as detailed above. The plates were then sealed with MicroAmp™ Optical Adhesive Film followed by spinning down for 1 min and placed in the CFX384 thermocycler (BioRad).
The RT-qPCR was carried out at the following temperatures for the indicated time: • Step 1:48° C. (30 min) • Step 2: 95° C. (10 min) • Step 3: 95° C. (15 sec) • Step 4: 60° C. (1 min); then, repeated Steps 3 and 4 for a total of 40 cycles.
The percent exon 4 skipping was calculated for each dose of compound treatment using Equations 1 and 2.
Data were fit to a dose response curve and the IC50 was interpolated using XLfit® statistical and curve fitting package.
An IC50 value between >2.0 μM and ≤3.0 μM is indicated by one star (*). […] IC50 value between >0.5 μM and ≤1.0 μM is indicated by four stars (****). An IC50 value≤0.5 μM is indicated by five stars (*****).

Row | Compound | IC50 ([1]; read-out: IC50) | IC50 (ATXN3 Pre-mRNA; read-out: IC50) | further results
1 | Clc1nc(NCc2ccncc2)c2cc[nH]c2n1 [Comparison Compound 1, 2-chloro-N-(pyridin-4-ylmethyl)-7H-pyrrolo[2,3-d]pyrimidin-4-amine, reference compound] | – | – | ATXN3 Protein IC50 ([1]; tested according to the assay of Example 1): inactive; ATXN3 mRNA IC50 (ATXN3 Pre-mRNA; tested according to the assay of Example 2): inactive
2 | C[C@H](N)Cc1[nH]c2nc(Cl)nc(NCc3ccco3)c2c1F [Cpd 10, 6-[(2S)-2-aminopropyl]-2-chloro-5-fluoro-N-[(furan-2-yl)methyl]-7H-pyrrolo[2,3-d]pyrimidin-4-amine] | ≤ 500 nM | ≤ 500 nM | –
3 | CNCCc1[nH]c2nc(Cl)nc(NCc3ccco3)c2c1Cl [Cpd 17, 2,5-dichloro-N-[(furan-2-yl)methyl]-6-[2-(methylamino)ethyl]-7H-pyrrolo[2,3-d]pyrimidin-4-amine] | 1000 to 1500 nM | 1500 to 2000 nM | –
4 | C[C@H](N)Cc1c(Cl)c2c(NCc3ccco3)nc(Cl)nc2n1C [Cpd 23, 6-[(2S)-2-aminopropyl]-2,5-dichloro-N-[(furan-2-yl)methyl]-7-methyl-7H-pyrrolo[2,3-d]pyrimidin-4-amine] | 500 to 1000 nM | 500 to 1000 nM | –
5 | C[C@H](N)Cc1c(F)c2c(NCc3ccco3)nc(Cl)nc2n1C [Cpd 24, 6-[(2S)-2-aminopropyl]-2-chloro-5-fluoro-N-[(furan-2-yl)methyl]-7-methyl-7H-pyrrolo[2,3-d]pyrimidin-4-amine] | 500 to 1000 nM | 1000 to 1500 nM | –
6 | Cc1c(C[C@H](C)N)n(C)c2nc(Cl)nc(NCc3ccco3)c12 [Cpd 35, 6-[(2S)-2-aminopropyl]-2-chloro-N-[(furan-2-yl)methyl]-5,7-dimethyl-7H-pyrrolo[2,3-d]pyrimidin-4-amine] | ≤ 500 nM | ≤ 500 nM | –
7 | C[C@H](N)Cc1c(F)c2c(NCc3nccs3)nc(Cl)nc2n1C [Cpd 38, 6-[(2S)-2-aminopropyl]-2-chloro-5-fluoro-7-methyl-N-[(1,3-thiazol-2-yl)methyl]-7H-pyrrolo[2,3-d]pyrimidin-4-amine] | 1000 to 1500 nM | 1000 to 1500 nM | –
8 | C[C@H](N)Cc1c(F)c2c(NCc3ccncc3F)nc(Cl)nc2n1C [Cpd 41, 6-[(2S)-2-aminopropyl]-2-chloro-5-fluoro-N-[(3-fluoropyridin-4-yl)methyl]-7-methyl-7H-pyrrolo[2,3-d]pyrimidin-4-amine] | 1000 to 1500 nM | 2000 to 3000 nM | –
9 | C[C@H](N)Cc1c(F)c2c(NCc3ccncc3)nc(Cl)nc2n1C [Cpd 43, 6-[(2S)-2-aminopropyl]-2-chloro-5-fluoro-7-methyl-N-[(pyridin-4-yl)methyl]-7H-pyrrolo[2,3-d]pyrimidin-4-amine] | 1500 to 2000 nM | 2000 to 3000 nM | –
10 | C[C@H](N)Cc1c(F)c2c(NCc3cncs3)nc(Cl)nc2n1C [Cpd 48, 6-[(2S)-2-aminopropyl]-2-chloro-5-fluoro-7-methyl-N-[(1,3-thiazol-5-yl)methyl]-7H-pyrrolo[2,3-d]pyrimidin-4-amine] | – | – | IC50 [1]: inactive; IC50 (ATXN3 Pre-mRNA): inactive
11 | C[C@H](N)Cc1c(F)c2c(NCc3cccs3)nc(Cl)nc2n1C [Cpd 49, 6-[(2S)-2-aminopropyl]-2-chloro-5-fluoro-7-methyl-N-[(thiophen-2-yl)methyl]-7H-pyrrolo[2,3-d]pyrimidin-4-amine] | 1000 to 1500 nM | 500 to 1000 nM | –
12 | C[C@H](N)Cc1c(F)c2c(NCc3ccccn3)nc(Cl)nc2n1C [Cpd 55, 6-[(2S)-2-aminopropyl]-2-chloro-5-fluoro-7-methyl-N-[(pyridin-2-yl)methyl]-7H-pyrrolo[2,3-d]pyrimidin-4-amine] | – | – | IC50 [1]: inactive; IC50 (ATXN3 Pre-mRNA): inactive
13 | C[C@H](N)Cc1c(F)c2c(NCc3cccnc3)nc(Cl)nc2n1C [Cpd 57, 6-[(2S)-2-aminopropyl]-2-chloro-5-fluoro-7-methyl-N-[(pyridin-3-yl)methyl]-7H-pyrrolo[2,3-d]pyrimidin-4-amine] | – | – | IC50 [1]: inactive; IC50 (ATXN3 Pre-mRNA): inactive
